Reference: patent US4863951A, “Pharmacologically active amino-5,6,7,8-tetrahydronaphtho [2,3-B] furan compounds” (ADIR Et Cie, priority 1987, dated 1989)
Structures can show the parent of a compound that is named as a salt.

Columns and labels:
[1] = test system: apomorphine-induced rearing-up; assay: Antagonism of apomorphine-induced rearing-up behavior in mice; format: in vivo; details: mice, apomorphine 0.75 mg.kg^-1 s.c.; for % inhibition of rearing-up: hydrochloride
Protocol: Studied in the test of antagonism of apomorphine-induced rearing-up following the subcutaneous administration of a dose of 0.75 mg.kg^-1 of this substance in mice, the compounds of general formula I act in a clear-cut manner at doses greater than or equal to 2.5 mg.kg^-1 (i.p.). The same results are observed when the compounds of general formula I are administered orally at a dose of 20 mg.kg^-1. The activity of the compounds was assessed according to the method described by Protais P, Costentin J and Schwartz J. C. in Psychopharmacology (1976), 50, p. 1-6.
(§1) (s=significant difference, p<0.05).

[2] = test system: apomorphine-induced stereotypy; assay: Antagonism of apomorphine-induced stereotypy in rats; format: in vivo; details: Rattus norvegicus, ip, 0.5 h, rats, apomorphine 1.5 mg.kg^-1 i.p., 30 minutes, read-out: % ISS (inhibition (-) or potentiation (+) of the stereotypy score)
Protocol: (§2) The inhibitory activity of the compounds of the invention with respect to apomorphine- or amphetamine-induced stereotypy in rats was assessed using the scale of scoring of stereotyped movements described by Quinton R. M. and Halliwell G. in Nature (1963), 200, p. 178-179.
Apomorphine or amphetamine was administered to the animals intraperitoneally at a dose of 1.5 mg.kg^-1. The percentage inhibition (-) or potentiation (+) of the stereotypy score (% ISS) shown in Tables IV and V for apomorphine corresponds to a measurement time of 30 minutes. In contrast, the percentage inhibition of the stereotypy score shown in Table VI for amphetamine corresponds to a measurement time of 3 hours. […]

[3] = test system: amphetamine-induced stereotypy; assay: Antagonism of amphetamine-induced stereotypy in rats; format: in vivo; details: 3 hours
Protocol: as §2
Apomorphine or amphetamine was administered to the animals intraperitoneally at a dose of 1.5 mg.kg^-1. The percentage inhibition (-) or potentiation (+) of the stereotypy score (% ISS) shown in Tables IV and V for apomorphine corresponds to a measurement time of 30 minutes. In contrast, the percentage inhibition of the stereotypy score shown in Table VI for amphetamine corresponds to a measurement time of 3 hours.
as §1

[4] = test system: apomorphine-induced hypothermia; assay: Antagonism with respect to apomorphine-induced hypothermia in mice; format: in vivo; details: mice, apomorphine 1 mg.kg^-1 s.c., after 2 hours; for % antagonism of hypothermia: hydrochloride
Protocol: Testing for an antagonism with respect to apomorphine-induced hypothermia in mice was performed according to the method described by CHERMAT R. and PONCELET M. in J. Pharmac. (1983), 14, No. 1, p. 93-97. The dose of apomorphine administered subcutaneously was 1 mg.kg^-1. Tables VII and VIII show the percentage antagonism of the hypothermia observed after 2 hours.

[5] = test system: reserpine-induced hypothermia; assay: Antagonism of reserpine-induced hypothermia; format: in vivo, Swiss CD male mice; details: mice, reserpine 2.5 mg.kg^-1 i.p.
Protocol: (§3) The antidepressant effects of the compounds of the invention were investigated by assessing the antagonism of reserpine-induced hypothermia and the antagonism of the ponto-geniculo-occipital waves induced by the compound Ro4-1284 in cats.
The study is carried out on Swiss CD male mice (27-28 g). After distribution into groups of 10 animals each, reserpine is injected intraperitoneally at a dose of 2.5 mg.kg^-1. Three hours later, the compounds undergoing trial are administered intraperitoneally. The rectal temperature of the animals is measured one hour and two hours after the second treatment, and compared with the initial temperature To of these same animals, measured immediately before the administration of the compounds undergoing trial.

[6] = test system: ponto-geniculo-occipital (P.G.O.) waves induced by Ro4-1284; assay: Antagonism of the ponto-geniculo-occipital (P.G.O.) waves induced by Ro4-1284; format: in vivo; details: Felis catus, iv, cats, i.v., read-out: ED50 (effective dose inhibiting by 50% the number of P.G.O. waves)
Protocol: as §3
This study was performed according to the method of Ruch-Monachon M. A., Jalfre M. and Haefely W. described in Arch. Int. Pharm. Therap., (1976), 219, No. 2, p. 251-346, and it enabled the effective dose (i.v) inhibiting by 50% (ED50) the number of P.G.O waves to be assessed.

[7] = test system: isolation-induced aggression; assay: Antiaggressive effects: isolation-induced aggression in mice; format: in vivo; details: isolated mice, i.p., hydrochloride
From the text: (§4) The antiaggressive effects of the compounds of the invention were investigated by two methods, one of them testing for an inhibition of aggressive behavior in peviously isolated mice (Yen C. Y., Stanger A. L., and Millman N, Arch. Int. Pharmacodyn. Therap. (1959), 123, p. 179-185), and the other in isolated and bulbectomized rats (Garattini S. and Sigg E. B. "Aggressive Behaviour" p. 47-55 Ed. Excerpta Medica Found., Amsterdam, 1969).
(§5) (Tables IX and X, s=significant, p<0.05).

[8] = test system: aggression of isolated, bulbectomized rats; assay: Antiaggressive effects: aggression of isolated, bulbectomized rats; format: in vivo; details: i.p., 2.5 mg.kg^-1, hydrochloride
From the text: as §4, §5

[9] = test system: interoceptive stimulus of apomorphine; assay: Drug discrimination in rats (generalization with apomorphine); format: in vivo; details: 2.5 mg.kg^-1 i.p., 30 minutes before test, hydrochloride
Protocol: Rats were trained to discriminate between the effect of the interoceptive stimulus of apomorphine (0.2 mg.kg^-1 i.p.) and that of physiological saline, according to a principle described by Colpaert F. in "Drug discrimination application in C.N.S. Pharmacology" Ed. Elsevier Biomedical 1982, Amsterdam. […]
Under the experimental conditions employed, the behavior shown by the animals coincides with that noted in the case of administration of apomorphine.

With `O=C(O)CCCCCCNC1CCc2cc3c(cc2C1)OCC3` (racemic) [Example 12, dl-7-{N-(2,3,5,6,7,8-Hexahydronaphtho[2,3-b]furan-7-yl)amino}heptanoic acid hydrochloride] as the molecule, how does the change in vivo at 10 mg/kg ([1]; Mus musculus, ip, i.p. dose 10 mg.kg^-1, read-out: % inhibition of rearing-up) read?
The change in vivo at 10 mg/kg was -17%.

What about the change in vivo at 20 mg/kg ([1]; Mus musculus, ip, i.p. dose 20 mg.kg^-1, read-out: % inhibition of rearing-up) of the same molecule?
Its change in vivo at 20 mg/kg is -20%.

What about the change in vivo at 10 mg/kg ([2]; i.p. dose 10 mg.kg^-1) of the same molecule?
Its change in vivo at 10 mg/kg is 19%.

What about the change in vivo at 20 mg/kg ([2]; i.p. dose 20 mg.kg^-1) of the same molecule?
The change in vivo at 20 mg/kg was -3%.

And the “% ISS (inhibition (-) or potentiation (+) of the stereotypy score)” value ([3]; i.p. dose 5 mg.kg^-1, amphetamine 1.5 mg.kg^-1 i.p.)?
The value was “+11%”.

And the “% ISS (inhibition (-) or potentiation (+) of the stereotypy score)” value ([3]; i.p. dose 10 mg.kg^-1, amphetamine 1.5 mg.kg^-1 i.p.)?
Its value is “+14%”.

And the change in vivo at 10 mg/kg ([4]; Mus musculus, ip, i.p. dose 10, read-out: % antagonism of hypothermia)?
Its change in vivo at 10 mg/kg is -4%.

What about the change in vivo at 20 mg/kg ([4]; Mus musculus, ip, i.p. dose 20, read-out: % antagonism of hypothermia) of the same molecule?
The change in vivo at 20 mg/kg was -2%.

And the “% inhibition of hypothermia” value ([5]; 5 mg.kg^-1 i.p.)?
Its value is -23%.

And the “% inhibition of hypothermia” value ([5]; 10 mg.kg^-1 i.p.)?
The value was -45%.

What about the “% inhibition of hypothermia” value ([5]; 20 mg.kg^-1 i.p.) of the same molecule?
The value was -18%.

What about the ED50 [6] of the same molecule?
The ED50 was > 2.52 mg/kg.

What does the source list for `NC1CCc2cc3c(cc2C1)OCC3` (stereo not drawn) [Example 3, d-7-Amino-2,3,5,6,7,8-hexahydronaphtho[2,3-b]furan hydrochloride]?
% inhibition of rearing-up ([1]; i.p. dose 10 mg.kg^-1): -72%; % inhibition of rearing-up ([1]; i.p. dose 20 mg.kg^-1): -79%; % antagonism of hypothermia ([4]; i.p. dose 2.5): -72%; % antagonism of hypothermia ([4]; i.p. dose 5): -79%; % antagonism of hypothermia ([4]; i.p. dose 10): -91%; % antagonism of hypothermia ([4]; i.p. dose 20): -86%; % of pairs of mice showing no sign of fighting ([7]; 2.5 mg.kg^-1): 56%; % of pairs of mice showing no sign of fighting ([7]; 5 mg.kg^-1): 78%; % of rats rendered non-aggressive [8]: 64%; ED50 [6]: 0.13 mg/kg; % of animals which generalize [9]: 88%; Number of animals showing the effect of generalization with apomorphine [9]: 8/9
